“Also recorded” adds a separate entry of the source. Blank lines part the entries; values can stand above or below the compound they belong to.
Experiments:
MEF2 = test: in vitro binding, method not stated
frataxin expression = conditions: Friedreich's ataxia; cited from earlier work
GAL4-VP16 = conditions: 10 μM; non-specific inhibition
[1] = tested on: acetylation of histone but not tubulin; conditions: cited from earlier work
MEF2A (1-95) = molecular target: T1, MEF2A (1-95) (Homo sapiens, UniProt Q02078); test: Surface plasmon resonance (Biacore T-100) competition: MEF2A (1-95) binding to immobilized HDAC4 (aa 155-220); conditions: for binding of MEF2A to immobilized HDAC4 after incubation with compound: Biacore, increasing concentrations (FIG. 5)
T1 construct: purified MEF2A (1-95) was used as the analyte
T1 sequence (Q02078 1-95): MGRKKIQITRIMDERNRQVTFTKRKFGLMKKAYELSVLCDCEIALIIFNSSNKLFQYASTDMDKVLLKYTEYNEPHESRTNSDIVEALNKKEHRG
Text: Here HDAC4 (aa 155-220) was immobilized on a CM5 sensor chip and purified MEF2A (1-95) was used as the analyte. The binding of MEF2A to HDAC4 at various concentrations generated a series of well-defined sensorgrams (data not shown). […] These technical limitations made it difficult to obtain a quantitative binding constant.

HDAC4:MEF2 interaction = molecular target: T2, HDAC4:MEF2 interaction (Homo sapiens, UniProt Q14814); test: Mammalian two-hybrid luciferase reporter assay (GAL4-MEF2D / HDAC4-VP16 / GAL4Luc); assay type: cell-based
T2 sequence (Q14814 1-521): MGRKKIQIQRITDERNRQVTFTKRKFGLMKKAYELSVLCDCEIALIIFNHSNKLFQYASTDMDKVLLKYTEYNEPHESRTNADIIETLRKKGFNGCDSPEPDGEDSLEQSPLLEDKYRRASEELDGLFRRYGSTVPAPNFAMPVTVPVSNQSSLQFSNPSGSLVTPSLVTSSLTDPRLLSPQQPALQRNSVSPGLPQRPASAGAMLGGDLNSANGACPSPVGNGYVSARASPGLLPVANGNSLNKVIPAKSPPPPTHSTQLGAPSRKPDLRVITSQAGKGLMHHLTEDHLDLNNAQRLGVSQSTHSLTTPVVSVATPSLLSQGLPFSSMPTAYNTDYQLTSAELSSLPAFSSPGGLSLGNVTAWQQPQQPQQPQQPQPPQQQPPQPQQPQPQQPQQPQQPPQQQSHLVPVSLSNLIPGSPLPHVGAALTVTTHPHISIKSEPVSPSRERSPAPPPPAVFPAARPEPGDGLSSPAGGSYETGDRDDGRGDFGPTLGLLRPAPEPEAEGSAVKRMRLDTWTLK
Text: In a preferred embodiment, there is disclosed herein a two-hybrid system based assay includes a binding domain fused with a bait, an activating domain fused with a prey, and a reporter gene; and determining a reporter signal level.
A series of MEF2-dependent luciferase reporter assays with transiently transfected MEF2D, HDAC4 and the co-activator p300 were used initially to screen various compounds. But these assays gave weak signal and high frequency of false positives, probably due to the complex transcription activation mechanisms of MEF2 and interference from endogenous factors. Through these observations, it was discovered that a highly sensitive and specific assay that can recapitulate the molecular interaction between HDAC4 and MEF2 inside cells is essential.
Taking advantage of the structural insights, in addition to the MEF2D L67D mutant mentioned above, we introduced a number mutations in HDAC4 that had been previously shown to disrupt HDAC4:MEF2 interaction in vitro. These mutations also diminished the luciferase signal in the cell-based assay (FIG. 3b).

HDAC = conditions: cited from earlier work

Kd (MEF2): 810 nM
weakening of binding against wild type HDAC4 (MEF2): 60%
Compound: HDAC4 mutant Val180Lys (in vitro binding) (from UniProt P56524 155-220)

Compound: Nc1ccccc1NC(=O)CCCCCC(=O)Nc1ccccc1 [PAOA, pimeloylanilide orthoaminoanilide]
frataxin expression / induction (frataxin expression): enhance the expression of frataxin
reduction of reporter signal driven by GAL4-VP16 (GAL4-VP16): 5.6 fold
selective induction of histone versus tubulin acetylation [1]: selectively induce acetylation of histone but not tubulin
binding of MEF2A to immobilized HDAC4 after incubation with compound (MEF2A (1-95)): dose dependent decrease; also recorded: binds MEF2 competitively with HDAC4
expression of HDAC4-VP16 (HDAC4:MEF2 interaction): did not affect
decrease of reporter signal driven by GAL4-MEF2D and HDAC4-VP16 (HDAC4:MEF2 interaction; 10 μM): about 26 fold
inhibition of the reporter signal in the mammalian two-hybrid assay (HDAC4:MEF2 interaction; GAL4-MEF2D/HDAC4-VP16, Hela cells): inhibited the reporter signal in a dose dependent manner
IC50 (HDAC4:MEF2 interaction; based on the mammalian two-hybrid assay): ~5000 nM
Kd (HDAC4:MEF2 interaction; estimated assuming equilibrium HDAC4 concentration ~0.5 μM and HDAC4:MEF2 Kd 0.47 μM, read-out: Kd for binding to MEF2 (estimated)): ~5000 nM

Compound: CC(/C=C/C(=O)NO)=C\[C@@H](C)C(=O)c1ccc(N(C)C)cc1 [trichostatin A (TSA), trichostatin A]
frataxin expression / induction (frataxin expression): no effect
IC50 HDAC inhibition (HDAC): low nanomolar range

direct binding to MEF2 by Biacore (MEF2A (1-95)): beyond the detection limit
normalized luciferase activity in MEF2-HDAC luciferase reporter assay (HDAC4:MEF2 interaction; 24 hrs after treatment (FIG. 4)): decreased in a dose dependent manner
Compound: Nc1ccccc1NC(=O)CCCCCCC(=O)Nc1ccccc1 [BML-210, suberoylanilide orthoaminoanilide]
binding of MEF2A to immobilized HDAC4 after incubation with compound (MEF2A (1-95)): bind MEF2 competitively with HDAC4; also recorded: competitive inhibition

Compound: O=C(CCCCCCC(=O)Nc1ccccc1)NO [SAHA, Vorinostat]
frataxin expression / induction (frataxin expression): no effect; also recorded: did not have this type of activity

Kd (MEF2): 470 nM
Compound: wild type HDAC4 (in vitro binding) (from UniProt P56524 155-220)

Compound: Cc1ccc(NC(=O)CCCCCC(=O)Nc2ccccc2N)cc1 [compound 106, N^1-(2-aminophenyl)-N^7-p-tolylheptanediamide]
frataxin expression / induction (frataxin expression): very active

— patent US8697729B2, “Small molecules modulator of epigenetic regulation and their therapeutic applications” (University of Southern California, priority 2008, dated 2014)
